Laboratory results published in patent US11833131B2, “Compositions and methods for treating inflammatory diseases” (priority 2017, dated 2023).

What was measured:
Format in all cases: cell-based, human
HCT116 cells = assay: Cell viability, Alamar Blue (Resazurin assay), HCT116
Method: HCT116 cells were seeded (50,000 per well) in triplicate in 500 μL growing media and incubated for 24 hours at 37° C. in a humidified 5% CO2-95% air atmosphere. […] Following, the cells were incubated with Alamar Blue for 4 hours. Relative fluorescence at the excitation/emission of 544/590 nm was measured. Values were calculated as percentage of live cells relative to the non-treated (cells without TNF-α and treatments) control after reducing the auto fluorescence of Alamar Blue without cells (n=3). […] HCT116 cells were seeded (50,000 per well) in triplicate in 500 μL, growing media and incubated for 24 hours at 37° C. in a humidified 5% CO2-95% air atmosphere. […] Relative fluorescence at the excitation/emission of 544/590 nm was measured. Values were calculated as percentage of live cells relative to the non-treated (cells without TNF-α and treatments) control after reducing the auto fluorescence of Alamar Blue without cells (n=3). […]
Resazurin (R&D Systems) was used to check the cytotoxic effect of extracts. […] Supernatant (100 μL from each well) was transferred to a 96-well plate and the relative fluorescence at the excitation/emission of 544/590 nm was measured. The number of live cells was calculated with a linear standard concentrate curve built by seeding different concentrations of cells in 24-well plates treated with Resazurin. […]

[1] = test system: IL-8 levels in HCT116 cells; assay: IL-8 ELISA in TNF-α-treated HCT116 cells; settings: for EC50: Homo sapiens, HCT-116, 16 h, read-out: EC50 (anti-inflammatory assay, 50% of activity)
Method: FIGS. 13A-C depict EC50 dose of fractions on HCT116 cells. (FIG. 13A) Fraction 7 (F7), (FIG. 13B) CBD and (FIG. 13C) THC. Dose-effect curves of F7, CBD or THC on IL-8 levels of HCT116 colon cancer cells. HCT116 cells were seeded (50,000 per well) in triplicate in 500 μL, growing media and incubated for 24 hours at 37° C. in a humidified 5% CO2-95% air atmosphere. Cells were treated with 50 ng/mL TNF-α and F7, CBD or THC for 16 hours. Levels of IL-8 were measured from the supernatant using a commercial kit. Values (ng/mL) were calculated relative to a TNF-α treated control. Non-treated are the cells without TNF-α and treatments. For dose response assays, data points were connected by non-linear regression lines of the sigmoidal dose-response relation. GraphPad Prism was employed to produce dose-response curve and EC50 doses.
(§1) HCT116 (ATCC CCL-247), HT29 (ATCC HTB-38) and CaCO2 (ATCC HTB-37) colon cells were grown at 37° C. in a humidified 5% CO2-95% air atmosphere. Cells were maintained in McCoy's 5a Modified Medium (HCT116 and HT29) and Dulbecco's modified Eagle's medium (DMEM) supplemented with 10% fetal bovine serum (CaCO2).
(§2) Cells were seeded, in triplicate, into a 24-well plate at a concentration of 50,000 cells per well in 500 μL, of growing media, and then incubated for 24 hours at 37° C. in a humidified 5% CO2-95% air atmosphere. When cell excitation was performed with TNF-α, cultures in each well were treated with 50-300 ng/mL recombinant human TNF-α (PeproTech, Rocky Hill, N.J., USA) and 50 μL plant extract, as described above (dilution index 57 or 280). The supernatant was taken and the level of IL-8 [12] was measured 4-16 hours post-treatment using the commercial Human CXCL8/IL-8 DuoSet ELISA kit (R&D Systems, Minneapolis, Minn., USA). As a positive control dexamethasone (Sigma-Aldrich, St. Louis, Mo., USA) at 20, 200 and 400 μM final concentration was used.
The involvement of the receptors (CB1, CB2 and GPR55) was examined by treating the cells with 20 μM of the CB1 receptor antagonist/inverse agonist Rimonabant (Abcam, Cambridge, Mass., USA), CB2 receptor antagonist/inverse agonist SR144528 (Abcam) and GPR55 antagonist/inverse agonist CID16020046 (Sigma-Aldrich, Buchs, Switzerland). […] Cell treatment with purified compounds was performed with CBD (Restek, Pa., USA) at different concentrations (as indicated in each experiment), THCA (THCA-A; Restek) at a final concentration of 0.2 mM and THC (Restek) at a final concentration of as indicated in each experiment mM to confirm the activity of each cannabinoid.
For dose response assays, data points were connected by non-linear regression lines of the sigmoidal dose-response relation. GraphPad Prism (version 6 for windows, GraphPad software Inc. San Diego, USA) was employed to produce dose-response curves and IC50 doses were calculated using nonlinear regression analysis.

[2] = test system: CB1 gene expression in HCT-116 cells; assay: CB1 gene expression (qPCR) in HCT-116 cells after TNF-α; settings: HCT-116, overnight treatment with TNF-α vs non-treated; ratio to GAPDH, 2-ΔΔCT
Method: (§3) Cells were seeded into a 6-well plate at a concentration of 1,500,000 cell/mL per well. After 24 hours incubation at 37° C. in a humidified 5% CO2-95% air atmosphere, cells were treated with TNF-α (final concentration of 1 ng/mL) and incubated overnight under the same conditions. Non-treated cells or cells treated only with TNF-α served as negative and positive controls, respectively. […] The next day, cells were harvested and total RNA was extracted using TRI reagent (Sigma-Aldrich) according to the manufacturer's protocol. For biopsies, all treatments were added overnight, after which the biopsies were stored at −20° C. in RNA Save solution (Biological Industries, Beit Haemek, Israel). RNA was extracted from frozen biopsies. Tissue samples were homogenized with an appropriate homogenizer in TRI reagent, as done for the cells. RNA (50 ng for biopsies: four UC patients and one CD patient) or 2.5 μg (for cells) was reverse-transcribed in a total volume of 20 μL using Maxima reverse transcriptase (Thermo Scientific, Boston, Mass., USA) according to the manufacturer's protocol. […] The expression of each target gene was normalized to the expression of GAPDH mRNA in the 2-ΔΔCt and is presented as the ratio of the target gene to GAPDH mRNA, expressed as 2-ΔCt, where Ct is the threshold cycle and ΔCt=Ct Target−Ct GAPDH. […]
(§4) Transcripts for CB1, CB2 and GPR55 were detected by qPCR in HCT116 cells.

[3] = test system: CB2 gene expression in HCT-116 cells; assay: CB2 gene expression (qPCR) in HCT-116 cells after TNF-α; settings: HCT-116, overnight treatment with TNF-α vs non-treated; ratio to GAPDH, 2-ΔΔCT
Method: as §3, §4

[4] = test system: GPR55 gene expression in HCT-116 cells; assay: GPR55 gene expression (qPCR) in HCT-116 cells after TNF-α; settings: HCT-116, overnight treatment with TNF-α vs non-treated; ratio to GAPDH, 2-ΔΔCT
Method: as §3, §4

[5] = test system: IL-8 levels in HT29 cells; assay: IL-8 ELISA in TNF-α-treated HT29 cells, incl. F7/THCA + CBD combinations (Bliss model); settings: for dose response of IL-8 levels: HT29, after 4 hours of treatment, F7 5-80 μg/ml, CBD 5-80 μM, THC 12.5-75 μM
Method: as §1, §2
In order to examine if there is a synergy between CBD and F7, ELISA assay was used to measure the anti-inflammatory activity of the fractions on HCT116 cells. Cells were seeded into a 24-well plates at 50,000 cells per well in triplicate in normal growing media. After 24 hours of incubation at 37° C. in a humidified 5% CO2-95% air atmosphere, cells were treated with different concentration of F7 (5 μg/mL to 80 μg/mL) with and without CBD (30 μM) along with 300 ng/mL of TNF-α or with different concentration of CBD (5 μM to 120 μM) with and without F7 (30 μg/mL) along with 300 ng/mL of TNF-α for 4 hours. Following, the supernatant was taken and the levels of IL-8 were measured using the commercial Human CXCL8/IL-8 DuoSet ELISA kit (R&D Systems, Minneapolis, Minn., USA). Resazurin (R&D Systems) was used to check the cytotoxic effect of extracts.
Drug synergy was determined by Bliss independence drug interaction model which is defined by the following equation: Exy=Ex+Ey−(ExEy)
Where (Exy) is the additive effect of the drug x and y as predicted by their individual effects (Ex and Ey). For calculation purpose, in this paper, the drug's anti-cancer effect was defined as complementary to the obtained results (1−Exy). The observed combined percentage viability is then compared to the calculated value. If the observed value of Exy is greater than the calculated Exy value, the combination treatment is considered as worse than expected, which means antagonism effect. If the observed value is less than the calculated one, then the combination treatment is considered as better than expected, thus showing synergism effect. […]

[6] = test system: IL-8 levels in CaCO2 cells; assay: IL-8 ELISA in TNF-α-treated CaCO2 cells; settings: CaCO2, 300 ng/mL TNF-α, 4 hours
Method: as §1, §2

HT29 cells = assay: Cell viability, Alamar Blue (Resazurin assay), HT29; settings: CBD 16-252 μg/mL, relative to HCT116 and CaCO2
Method: (§5) Resazurin (R&D Systems) was used to check the cytotoxic effect of extracts. For this, 10% Resazurin was added to each well of the treatments with different dilution. Then the plate was incubated for 2-4 hours at 37° C. in a humidified 5% CO2-95% air atmosphere. Supernatant (100 μL from each well) was transferred to a 96-well plate and the relative fluorescence at the excitation/emission of 544/590 nm was measured. The number of live cells was calculated with a linear standard concentrate curve built by seeding different concentrations of cells in 24-well plates treated with Resazurin. Values were calculated as percentage of live cells relative to the non-treated (cells without TNF-α and treatments) control after reducing auto-fluorescence of Alamar Blue without cells.

CaCO2 cells = assay: Cell viability, Alamar Blue (Resazurin assay), CaCO2; settings: CBD 16-252 μg/mL
Method: as §5

With SR144528 the HCT116 cell proliferation (HCT116 cells; antagonist 20 μM) was “Significantly Increases HCT116 Cell Proliferation”.
For `CCCCCc1cc2c(c(O)c1C(=O)O)C1C=C(C)CCC1C(C)(C)O2` (stereo not drawn) [THCA, Δ9-tetrahydrocannabinolic acid], the “reduction of IL-8 levels” value ([1]; HCT116, 50 ng/mL TNF-α, 16 hours, 0.2 mM THCA, F7 diluted 280-fold to correspond to 0.2 mM THCA) was “significantly reduced IL-8 levels”.
TNF-α was tested, and the “Mean relative expression, CB1” value [2] was 1.31, the “Mean relative expression, CB2” value [3] was 5.84 and the “Mean relative expression, GPR55” value [4] was 5.26.
In the case of `Cc1ccc(-c2n[nH]c3c2C(c2cccc(O)c2)N(c2ccc(C(=O)O)cc2)C3=O)cc1` (stereo not drawn) [CID16020046], the “IL-8 level in control” value ([1]; HCT116, antagonist 20 μM alone, without fractions) is reported as “did not change IL-8 level”.
For `C=C(C)[C@@H]1CCC(C)=C[C@H]1c1c(O)cc(CCCCC)cc1O` [CBD, cannabidiol], the “anti-inflammatory activity (IL-8)” value ([1]; HCT116, higher CBD concentrations) was “no anti-inflammatory activity”, the EC50 [1] was 30.4 µM and the “reduction in IL-8 levels” value ([1]; purified CBD 16-252 μg/mL, lower concentrations of CBD) was “reduction in IL-8 levels”. The “anti-inflammatory activity (IL-8 level)” value ([5]; HT29, 300 ng/mL TNF-α, 4 hours) was “active in reduction of IL-8 levels”, the “dose response of IL-8 levels” value [5] was “dose dependent reduction of IL-8 levels” and the “IL-8 level at low concentrations” value ([5]; HT29, CBD below 20 μM) was “significant decrease in the IL-8 level”. The “anti-inflammatory activity (IL-8 level)” value [6] was “active in reduction of IL-8 levels”, the cell death (HCT116 cells; CBD 16-252 μg/mL) was “dose-dependent cell death” and the cell death (HT29 cells) was “to a lesser extent”. For the same compound, the cell death (CaCO2 cells) was “dose-dependent cell death”.
`CCCCCc1cc(O)c2c(c1)OC(C)(C)[C@@H]1CCC(C)=C[C@@H]21` [THC, Δ9-tetrahydrocannabinol] was tested, and the EC50 [1] was 102 µM and the “dose response of IL-8 levels” value [5] was “dose dependent reduction of IL-8 levels”.
